Results: patent US4006226A, “Anticonvulsant diphenylsilanes” (priority 1976, dated 1977)

What was measured:
[1] = LD50, single dose in sesame oil, 14 days observation; design: species or system male Carworth mice; conditions: mouse, in vivo, po, dead after 14 days
Experimental: (§1) The modified (100 Hz, 0.1 sec., 150 volt) maximal electroshock test was used to determine the anticonvulsant activity of several hydrolyzable silanes. Male Carworth mice were used as the test animal. All of the compounds were administered orally in a sesame oil carrier. […] The effective amount (ED50) for the compounds at three different time intervals after dosing was determined as previously described.
The LD50 of certain silanes was determined by administering a single dose of the silane in sesame oil to groups of the male mice.

maximal electroshock [2] = assay: Modified maximal electroshock test (100 Hz, 0.1 sec., 150 volt) of hydrolyzable silanes, oral; format: in vivo, male Carworth mice; conditions: for ED50: Mus musculus, read-out: Maximal Electroshock ED50 (95% C.I.); for ED50 / Maximal Electroshock ED50 (95% C.I.): sesame oil; for anticonvulsant activity (in words): maximal electroshock
Experimental: as §1

maximal electroshock [3] = assay: Modified maximal electroshock, oral dosing via gastric intubation in sesame oil; format: in vivo, mice; conditions: Mus musculus
Experimental: (§2) Mice were also dosed with a similar solution of diphenylsilanediol but by intravenous administration. The ED50 was determined to be 10 mg./kg. with a 5 minute peak time by a modified maximal electroshock technique in which stimulus was delivered at 100 Hz for 0.1 second at 150 volts.
Oral dosing of mice via gastric intubation with the diphenylsilanediol suspended in sesame oil solution was also performed. Maximal electroshock (modified as described above) was again used to determine the amount necessary to provide an effective dose (ED50) at various time intervals after dosing.

[4] = system: Pentylenetetrazol-induced clonic seizures; assay: Pentylenetetrazol-induced seizure test (Swinyard's method); format: in vivo, mice (female Swiss Webster); conditions: Mus musculus, ip, 0.5 h; i.p., 30 minutes before pentylenetetrazol; absence of clonic seizures
Experimental: (§3) Diphenylsilanediol was also tested to determine its effectiveness against chemically-induced seizures. Pentylenetetrazol and strychnine were the convulsant compounds used. Pentylenetetrazol testing was performed in accordance with Swinyard's method as described in J. Am. Pharm. Assoc. 38:201, 1949, while styrchnine tests were made by the method of Everett and Richards as described in J. Pharm. Exp. Ther. 81:402, 1944.
(§4) The silane (in 0.5% aqueous methylcellulose) was administered i.p. to groups of 6 mice (female Swiss Webster) at doses of 10, 30, 100 and 300 mg./kg. The silane solution was administered 30 minutes before injection with one of the convulsant drugs. The end point for scoring effectiveness was the absence of clonic seizures during the 30 minute period subsequent to administration of the convulsant -- this same criterion was utilized in conducting the strychnine tests. In both tests, effective amounts (ED50) of the silane were equivalent with the pentylenetetrazol-induced convulsion requiring 58 mg./kg. and the styrchnine tests showing 60 mg./kg. as the ED50.

maximal electroshock [5] = assay: Modified maximal electroshock (100 Hz, 0.1 second, 150 volts), intravenous dosing; format: in vivo, mice
Experimental: as §2

[6] = Acute toxicity (LD50), i.p.; conditions: mouse, in vivo, ip, mice, freshly prepared solution
Experimental: (§5) (ED99) to be 30 minutes after dosing, the half time of the effect to be about four hours, with some measurable anticonvulsant activity being noted up to 10 hours. The toxicity (LD50) of this silane solution (as freshly prepared) in mice, administered i.p., was determined to be 2500 mg./kg.

[7] = system: strychnine-induced seizures; assay: Strychnine-induced seizure test (method of Everett and Richards); format: in vivo, mice (female Swiss Webster); conditions: Mus musculus, ip, 0.5 h
Experimental: as §3, §4

[8] = system: idiopathic epilepsy, grand mal seizures of the clonic type; assay: Control of seizures in a dog with idiopathic epilepsy; format: in vivo, dog (German Shepard)
Experimental: A young adult dog (German Shepard) was diagnosed as having idiopathic epilepsy after having grand mal seizures of the clonic type.
After five days of dosing, the same amount was administered orally in 250 mg. capsules for a period of 10 days.

[9] = system: tonic extension of the hind limbs; assay: Electroshock test (60 Hz A.C., 0.2 second, 50 milliamp), i.p. dosing; format: in vivo, mice (female Swiss Webster)
Experimental: The electroshock test procedure was used to determine anticonvulsant activity of diphenylsilanediol. Adult female mice (Swiss Webster strain) were utilized as test animals. […] Seizure protection was scored as inhibition of tonic extension. Groups of mice (six/group) were dosed interperitonially with varying amounts of diphenylsilanediol in a 0.5% methylcellulose solution in distilled water. The dosages ranged from 10 to 100 mg./kg. and the electroshock was applied 30 minutes after dosing.
as §5

[10] = after cessation of 10 mg./kg. oral dose twice daily
[11] = after discontinuation of 500 mg. regimen

Structure (SMILES) | LD50 at 336 h [1] [mg/kg] | ED50 (maximal electroshock [2]; 4 hrs. after dosing) [mg/kg] | ED50 (maximal electroshock [2]; 6 hrs. after dosing) [mg/kg] | ED50 (maximal electroshock [2]; 2 hrs. after dosing) [mg/kg] | further results
CCCCO[Si](OCCCC)(c1ccccc1)c1ccccc1 [.phi.2 Si(On-C4 H9)2, diphenyl-di-n-butoxysilane, reference compound] | 5300 | 1000 | 1000 | – | anticonvulsant activity (in words) (maximal electroshock [2]): no observed activity; Maximal Electroshock ED50 (95% C.I.) (maximal electroshock [2]; 2 hrs. after dosing): no protection
CCO[Si](OCC)(c1ccccc1)c1ccccc1 [.phi.2 Si(OC2 H5)2] | 1720 | 50 | 22 | 37 | –
O[Si](O)(c1ccccc1)c1ccccc1 [.phi.2 Si(ONa)2] | – | 61 | 90 | 37 | –
N[Si](N)(c1ccccc1)c1ccccc1 [.phi.2 Si(NH2)2] | – | 68 | 100 | 56 | –
CN(C)[Si](c1ccccc1)(c1ccccc1)N(C)C [.phi.2 Si[N(CH3)2]2] | – | 50 | 56 | 50 | –
CC(=O)O[Si](OC(C)=O)(c1ccccc1)c1ccccc1 | – | 11 | 50 | 43 | –
CCO[SiH](c1ccccc1)c1ccccc1 | – | 21 | 46 | 22 | –
CCCCS[Si](SCCCC)(c1ccccc1)c1ccccc1 [.phi.2 Si(SC4 H9)2] | – | 65 | 65 | 290 | –
c1ccc([SiH2]c2ccccc2)cc1 [.phi.2 SiH2] | 924 | 25 | 28 | 28 | –
O[Si](O)(c1ccccc1)c1ccccc1 [diphenylsilanediol] | – | – | – | – | ED50 (maximal electroshock [3]; 2 hrs. after dosing): 25 mg/kg; ED50 (maximal electroshock [3]; 4 hrs. after dosing): 37 mg/kg; ED50 (maximal electroshock [3]; 6 hrs. after dosing): 60 mg/kg; ED50 [4]: 58 mg/kg; peak time (maximal electroshock [5]): 5 min; ED50 (maximal electroshock [5]; Mus musculus, 5 min): 10 mg/kg; LD50 [6]: 2500 mg/kg; ED50 [7]: 60 mg/kg; control of seizures ([8]; 500 mg. intramuscularly twice per day): effective in controlling seizures; seizures during 15 day period ([8]; 500 mg. twice per day, 5 days intramuscular then 10 days oral (250 mg. capsules)): did not experience seizures; first seizure postdose [8, 10]: 30 h; interval of seizures after cessation [8, 10]: three; first seizure after the last dose [8, 11]: 39 h; interval of seizures after discontinuation [8, 11]: about four; elimination of seizures ([8]; one-half the previous dosage, 10 mg./kg. orally twice daily, 10 days): effective in eliminating seizures; half time of the effect ([9]; 25 mg./kg. (ED99)): about four; peak time of the anticonvulsant effect ([9]; 25 mg./kg. (ED99)): 30 min; some measurable anticonvulsant activity noted up to ([9]; 25 mg./kg. (ED99)): up to 10 hours; ED99 ([9]; Mus musculus, ip, 0.5 h): 25 mg/kg; ED50 ([9]; Mus musculus, ip, 0.5 h, 0.5% methylcellulose, electroshock 30 minutes after dosing, read-out: effective dose to prevent convulsions in half the animals (ED50)): 20 mg/kg
O[Si](O[Si](O)(c1ccccc1)c1ccccc1)(c1ccccc1)c1ccccc1 [reference compound] | – | 1000 | 1000 | 1000 | anticonvulsant activity (in words) (maximal electroshock [2]): no anticonvulsant activity
CO[Si](OC)(c1ccccc1)c1ccccc1 [.phi.2 Si(OCH3)2] | 1060 | 26 | 52 | 39 | –
CC(C)O[Si](OC(C)C)(c1ccccc1)c1ccccc1 [.phi.2 Si(Oi-C3 H7)2] | 990 | 99 | 66 | – | Maximal Electroshock ED50 (95% C.I.) (maximal electroshock [2]; 2 hrs. after dosing): no protection
CN[Si](NC)(c1ccccc1)c1ccccc1 | – | 70 | 153 | 68 | –
CCN(CC)CCO[Si](OCCN(CC)CC)(c1ccccc1)c1ccccc1 [.phi.2 Si[OCH2 CH2 N(C2 H5)2]2] | – | 84 | 168 | 52 | –
CCCO[Si](OCCC)(c1ccccc1)c1ccccc1 [.phi.2 Si(On-C3 H7)2] | 1000 | 89 | 32 | – | Maximal Electroshock ED50 (95% C.I.) (maximal electroshock [2]; 2 hrs. after dosing): no protection
